Reference: PMC10376254, “Phytochemical and Bioactivity Studies on Hedera helix L. (Ivy) Flower Pollen and Ivy Bee Pollen” (Antioxidants, 2023)
Entries after “also recorded” stand apart in the source; their conditions may differ. Marks after values point to notes of the source that are not given here.

What was measured:
[1] = system: xanthine oxidase (XO); assay: HPTLC-xanthine oxidase inhibitory activity (bioautography); format: biochemical; conditions: for HPTLC-XO zone detection (XO inhibitors as white/yellow zones on purple background): 8 µg on plate for compounds, samples 50 mg/mL, 2 and 5 µL, documented 0–120 min
Protocol: HPTLC analyses was immersed into a derivatization chamber with a mixture of phosphate buffer solution (pH 7.6) containing EDTA (1 mM), NBT (1 mM) and XO (0.1 U/mL), and incubated at 37 °C for 30 min in the dark. After drying in the air, the HPTLC plate was dipped into a phosphate buffer solution containing xanthine (1.5 mM) and incubated at 37 °C for 30 min in the dark. After drying in the air, the HPTLC plate was documented at white light in RT mode immediately (0 min), as well as at 5, 10, 15, 20, 30, 45, 60, 90, and 120 min, subsequently.
In HPTLC-XO inhibitory activity assay, the developed plate was dipped into a phosphate buffer solution containing xanthine and after incubation and drying was documented immediately (t = 0 min) and after 5, 10, 15, 20, 30, 45, 60, 90 and 120 min. Within this documentation interval, the plate was stored in the dark. The XO inhibitors were detected as white/yellow zones on a purple background (Figure 7).

[2] = target: T1, xanthine oxidase (XO) (Bos taurus, UniProt P80457); assay: Xanthine oxidase inhibitory activity (spectrophotometric); format: biochemical; conditions: for XO inhibitory activity (in words): spectrophotometric assay, at the applied concentrations (0.01–1 mg/mL)
T1 construct: purchased Sigma-Aldrich (Steinheim, Germany)
Protocol: Half-maximal inhibitory concentration values (IC50) were calculated for superoxide radical scavenging and XO inhibitory activity. Inhibition values (%) were calculated based on absorbances (A) measured against blank solutions by using the following formula:Inhibition (%): (1 − (ASample − ASample Blank)/(AControl − AControl Blank)) × 100.
Sodium phosphate buffer (50 mM, pH 7.5, 75 µL) was placed in the wells of a 96-well microplate; this was followed by the DSTSs in different concentrations (25 µL); followed by freshly prepared XO solution (0.2 U/mL in phosphate buffer solution, 25 µL); followed by water (25 µL). Incubation of the reaction mixture at 37 °C for 15 min was followed by the addition of a substrate solution (0.15 mM xanthine, 50 µL) into the mixture and incubation at 37 °C for 30 min until the reaction was terminated by the addition of hydrochloric acid (0.5 M, 50 µL). Finally, the absorbance was measured at 290 nm against a blank, containing all reagents, except the enzyme solution.

[3] = Superoxide radical scavenging (SOD) activity (xanthine/XO/NBT); format: biochemical; conditions: for SOD Activity IC50: enzymatic xanthine/XO/NBT, 560 nm, n = 3, ± SD, N.d. = Not detected
Protocol: Half-maximal inhibitory concentration values (IC50) were calculated for superoxide radical scavenging and XO inhibitory activity. Inhibition values (%) were calculated based on absorbances (A) measured against blank solutions by using the following formula:Inhibition (%): (1 − (ASample − ASample Blank)/(AControl − AControl Blank)) × 100. (1)
SOD activity was performed as described in Ref. [27]. […] After incubation at 37 °C for 20 min the reaction was terminated by hydrochloric acid (0.6 M, 80 µL) and absorption was measured at 560 nm against a blank solution containing all reagents except XO.

[4] = ABTS assay; conditions: trolox equivalents, n = 3, average ± SD
Protocol: (§1) The antioxidant activities were expressed as mg of trolox equivalents (TE) per g of hydroalcoholic extract (TE/g hydroalcoholic extract).
ABTS assay [33] was slightly modified and then applied. Equal volumes (20 µL) of the DSTSs, trolox standard solutions (6.25–100 μg/mL) or methanol (as a blank) were placed in separate wells of a 96-well microplate plate, and ABTS reagent (280 µL) was added. The absorbance was measured at 734 nm, after incubating the well plate for 6 min at room temperature.

[5] = DPPH• assay (spectrophotometric antioxidant activity); conditions: trolox equivalents, n = 3, average ± SD
Protocol: The same range of concentration (1–2.5 mg/mL) of DSTSs was applied for DPPH, FRAP, CUPRAC and ABTS assays. […] The antioxidant activities were expressed as mg of trolox equivalents (TE) per g of hydroalcoholic extract (TE/g hydroalcoholic extract). […] Inhibition values (%) were calculated based on absorbances (A) measured against blank solutions by using the following formula:Inhibition (%): (1 − (ASample − ASample Blank)/(AControl − AControl Blank)) × 100.
Equal volumes (20 μL) of the DSTSs, trolox standard solutions (3.125–100 μg/mL) and methanol (as a blank) were placed in separate wells of a 96-well microplate, which was followed by the addition of DPPH solution (0.1 mM, 280 μL) to each well. After incubation in the dark at room temperature for 30 min, the absorbance was measured at 530 nm [30].

[6] = CUPRAC assay (cupric reducing antioxidant capacity); conditions: trolox equivalents, n = 3, average ± SD
Protocol: as §1
The CUPRAC method [32] was applied. Copper (II) sulfate pentahydrate (10 mM, 85 µL), neocuproine (7.5 mM, 85 µL) ammonium acetate buffer solution (85 µL, pH 7) and water (51 µL) were inserted in each well of a 96-well microplate. Then, either 43 µL of the DSTSs or trolox standard solutions (3.125–200 μg/mL) or water as a blank were added into each well. After incubation at room temperature for 30 min, the absorbance was measured at 450 nm.

[7] = FRAP assay (ferric reducing antioxidant power); conditions: trolox equivalents, n = 3, average ± SD
Protocol: The same range of concentration (1–2.5 mg/mL) of DSTSs was applied for DPPH, FRAP, CUPRAC and ABTS assays. […] The antioxidant activities were expressed as mg of trolox equivalents (TE) per g of hydroalcoholic extract (TE/g hydroalcoholic extract).
FRAP solution was freshly prepared by mixing 1 volume of iron (III) chloride solution (2 × 10^−2 M), 1 volume of TPTZ solution (1 × 10^−2 M) and 10 volumes of sodium acetate buffer (pH 3.6) solution. FRAP solution (280 µL) and the DSTSs (20 µL) or trolox standard solutions (20 µL; 3.125–100 μg/mL) or water as a blank (20 µL) were added in separate wells of a 96-well microplate, and after 6 min the absorbance was measured at 593 nm [31].

[8] = HPTLC-DPPH• effect-directed analysis; conditions: 0.4 µg on plate for compounds; STS 20 mg/mL, 2 and 5 µL
Protocol: HPTLC analyses were dipped into DPPH solution (0.1%) for 3 s using a Chromatogram Immersion Device III (Camag). The plates were left to dry in the air in the dark and were documented under white light after 30 min. The compounds having antioxidant activity appeared as yellow bands on the purple background.
The image of the HPTLC plate captured at white light illumination after HPTLC-DPPH analyses was for image analyses converted to a different format using WinCATS software (Camag) and then converted to videodensitograms in fluorescence mode using VideoScan TLC/HPTLC Evaluation Software (Version 1.02.00) (Camag).

[9] = spectrophotometric, 290 nm, n = 3, ± SD, N.d. = Not detected

T1 sequence (P80457 2-1332 limits assumed): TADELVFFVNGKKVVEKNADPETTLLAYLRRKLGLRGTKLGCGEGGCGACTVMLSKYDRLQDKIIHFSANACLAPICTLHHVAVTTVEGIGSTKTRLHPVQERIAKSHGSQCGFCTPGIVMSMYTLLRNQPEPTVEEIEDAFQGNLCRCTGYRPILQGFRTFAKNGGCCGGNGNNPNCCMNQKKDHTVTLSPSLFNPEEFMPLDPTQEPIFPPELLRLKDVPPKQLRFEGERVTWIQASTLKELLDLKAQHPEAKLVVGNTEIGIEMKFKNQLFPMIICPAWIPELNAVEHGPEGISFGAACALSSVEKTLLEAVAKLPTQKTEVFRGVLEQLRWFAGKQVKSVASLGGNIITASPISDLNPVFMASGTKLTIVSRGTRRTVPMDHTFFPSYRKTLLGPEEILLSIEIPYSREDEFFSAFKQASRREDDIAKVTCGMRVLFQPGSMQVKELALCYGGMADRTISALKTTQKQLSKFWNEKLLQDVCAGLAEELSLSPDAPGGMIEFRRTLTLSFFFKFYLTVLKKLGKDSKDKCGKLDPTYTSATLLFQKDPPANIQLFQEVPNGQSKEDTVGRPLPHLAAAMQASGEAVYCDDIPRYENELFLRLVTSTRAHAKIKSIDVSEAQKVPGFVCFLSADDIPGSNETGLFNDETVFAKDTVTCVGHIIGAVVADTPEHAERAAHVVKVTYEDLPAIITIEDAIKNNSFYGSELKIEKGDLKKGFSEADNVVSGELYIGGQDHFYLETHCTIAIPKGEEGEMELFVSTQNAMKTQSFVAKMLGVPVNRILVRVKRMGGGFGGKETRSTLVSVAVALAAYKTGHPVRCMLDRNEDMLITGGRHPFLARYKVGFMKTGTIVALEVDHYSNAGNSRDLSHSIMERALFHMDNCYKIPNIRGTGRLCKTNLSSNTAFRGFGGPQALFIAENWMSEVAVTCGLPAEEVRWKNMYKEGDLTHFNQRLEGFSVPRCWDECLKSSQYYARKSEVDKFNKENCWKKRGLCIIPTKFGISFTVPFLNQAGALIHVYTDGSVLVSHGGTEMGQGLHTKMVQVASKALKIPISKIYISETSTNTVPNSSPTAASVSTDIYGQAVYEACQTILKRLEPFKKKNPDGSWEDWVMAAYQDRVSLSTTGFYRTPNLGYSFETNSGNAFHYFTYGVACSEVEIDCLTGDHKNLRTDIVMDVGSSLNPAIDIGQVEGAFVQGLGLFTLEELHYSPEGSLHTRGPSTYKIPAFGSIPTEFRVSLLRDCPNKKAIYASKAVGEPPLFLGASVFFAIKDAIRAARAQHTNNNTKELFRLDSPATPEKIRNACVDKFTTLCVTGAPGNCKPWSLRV

SMILES	IC50 [2, 9] [µM]	XO inhibitory activity (in words) [2]	XO Inhibitory Activity IC50 [2, 9]	HPTLC-XO zone detection (XO inhibitors as white/yellow zones on purple background) [1]	SOD activity (in words) ([3]; spectrophotometric assay)	time at which the XO inhibition zone appeared on the HPTLC plate ([1]; 8 µg on plate) [min]	ABTS antioxidant activity [4]	DPPH antioxidant activity [5]	CUPRAC antioxidant activity [6]	FRAP antioxidant activity [7]	SOD Activity IC50 [3]	SOD Activity IC50 ([3]; listed as allopurinol) [µg/mL]	HPTLC-DPPH intensity of yellow zone [8]
O=C(/C=C/c1ccc(O)c(O)c1)O[C@@H]1C[C@](O)(C(=O)O)C[C@@H](O)[C@H]1O [Chlorogenic acid, chlorogenic acid, reference compound]	35.8	–	–	appeared immediately as yellow zones and lasted for 120 min	–	–	–	–	–	–	–	–	–
C[C@@H]1OC(Oc2c(-c3ccc(O)cc3)oc3cc(O)cc(O)c3c2=O)[C@H](O)[C@H](O)[C@H]1O (some centres unmarked) [Afzelin, kaempferol-3-O-rhamnopyranoside]	–	–	–	appeared immediately as yellow zones and lasted for 120 min	–	–	104.71 ± 0.25 ^e mg TE/g	149.35 ± 4.28 ^d mg TE/g	171.40 ± 8.24 ^e mg TE/g	58.54 ± 2.37 ^d mg TE/g	20.61 ± 1.30 ^b µg/mL	–	–
Oc1ncnc2[nH]ncc12 [Allopurinol, allopurinol, reference compound]	–	–	–	immediately as a white zone, which lasted for 120 min	–	–	–	–	–	–	3.03 ± 0.10 ^a µg/mL	3.0	–
O=c1c(O[C@@H]2O[C@H](CO)[C@H](O)[C@H](O)[C@H]2O[C@@H]2O[C@H](CO)[C@@H](O)[C@H](O)[C@H]2O)c(-c2ccc(O)c(O)c2)oc2cc(O)cc(O)c12 [quercetin 3-O-β-glucopyranosyl-(1→2)-β-galactopyranoside]	117	low XO inhibitory activity	–	appeared immediately as yellow zones and lasted for 120 min	–	–	242.13 ± 5.88 ^c mg TE/g	400.21 ± 11.78 ^c mg TE/g	560.53 ± 14.74 ^c mg TE/g	227.30 ± 2.65 ^c mg TE/g	5.09 ± 0.36 ^a µg/mL	–	–

The next lines start with results.

IC50 [2, 9] [µM]	XO inhibitory activity (in words) [2]	XO Inhibitory Activity IC50 [2, 9]	SMILES	HPTLC-XO zone detection (XO inhibitors as white/yellow zones on purple background) [1]	SOD activity (in words) ([3]; spectrophotometric assay)	time at which the XO inhibition zone appeared on the HPTLC plate ([1]; 8 µg on plate) [min]	ABTS antioxidant activity [4]	DPPH antioxidant activity [5]	CUPRAC antioxidant activity [6]	FRAP antioxidant activity [7]	SOD Activity IC50 [3]	SOD Activity IC50 ([3]; listed as allopurinol) [µg/mL]	HPTLC-DPPH intensity of yellow zone [8]
–	no XO inhibitory activity	–	C[C@@H]1O[C@@H](Oc2c(-c3ccc(O)cc3)oc3cc(O)cc(O)c3c2=O)[C@H](OC(=O)/C=C/c2ccc(O)cc2)[C@H](OC(=O)/C=C/c2ccc(O)cc2)[C@H]1O [Platanoside]	weakest XO inhibition activity; also recorded: weak yellow zone	no SOD activity	20	173.15 ± 0.86 ^d mg TE/g	143.11 ± 1.31 ^d mg TE/g	213.68 ± 8.41 ^d mg TE/g	49.06 ± 0.91 ^de mg TE/g	–	–	–
–	–	17.47 ± 2.23 ^c µg/mL	O=C(/C=C/c1ccc(O)c(O)c1)O[C@@H]1CC(O)(C(=O)O)C[C@@H](OC(=O)/C=C/c2ccc(O)c(O)c2)C1O (some centres unmarked) [3,5-Dicaffeoylquinic acid, 3,5-dicaffeoylquinic acid, reference compound]	appeared immediately as yellow zones and lasted for 120 min	–	–	701.64 ± 13.63 ^b mg TE/g	665.53 ± 1.96 ^b mg TE/g	760.83 ± 12.84 ^b mg TE/g	542.36 ± 15.41 ^b mg TE/g	5.87 ± 0.32 ^a µg/mL	–	slightly lower intensity
